This is an account of results in paper PMC4255672 (2014).

In the assay the test system is BPA aptamer (DNA, aptamer) CCGCCGTTGGTGTGGTGGGCCTAGGGCCGGCGGCGCACAGCTGTTATAGACGTCTCCAGC
The experiment in a line: microscale thermophoresis. Particulars: 25 °C; 5 nM aptamer; BPA 310 pM to 10 μM; Hill1 fit; buffer not stated.

As for `CC(C)(c1ccc(O)cc1)c1ccc(O)cc1`, the Kd is recorded as ~ 100 nM.
